Numbers after ± are expanded uncertainties.

For the data set the following is noted: for surface tension liquid-gas: Pendant drop shape; for mass density: 101.33 kPa, Liquid, Vibrating tube method.

As usually defined, the surface tension liquid-gas is the force per length acting along the surface. The term mass density denotes the mass of a sample divided by its volume. Take `CCCCn1cc[n+](C)c1.NCC(=O)[O-]` [1-butyl-3-methylimidazolium glycinate]: the surface tension liquid-gas is recorded as 54.5 ± 0.6 mN/m (298.15 K); 53.6 ± 0.6 mN/m (303.15 K); 51.9 ± 0.6 mN/m (313.15 K); 50.5 ± 0.5 mN/m (323.15 K); 48.4 ± 0.5 mN/m (333.15 K); 46.8 ± 0.5 mN/m (343.15 K). The mass density runs as follows: (298.15 K) 1128.47 ± 8 kg/m3; (303.15 K) 1125.91 ± 8 kg/m3; (313.15 K) 1119.35 ± 8 kg/m3; (323.15 K) 1112.78 ± 8 kg/m3; (333.15 K) 1107.1 ± 8 kg/m3; (343.15 K) 1100.5 ± 8 kg/m3.
`CCCC[n+]1ccn(C)c1.O=C([O-])c1ccccc1` [3-butyl-1-methylimidazolium benzoate]: the surface tension liquid-gas by setting is: (298.15 K) 40.1 ± 0.5 mN/m; (303.15 K) 39.7 ± 0.5 mN/m; (313.15 K) 39.1 ± 0.4 mN/m; (323.15 K) 38.7 ± 0.4 mN/m; (333.15 K) 38.3 ± 0.4 mN/m; (343.15 K) 37.8 ± 0.4 mN/m. Besides, the mass density was 1105.25 ± 8 kg/m3 (298.15 K); 1102.19 ± 8 kg/m3 (303.15 K); 1095.87 ± 8 kg/m3 (313.15 K); 1089.66 ± 8 kg/m3 (323.15 K); 1083.46 ± 8 kg/m3 (333.15 K); 1077.22 ± 8 kg/m3 (343.15 K).
For the compound `CCCCn1cc[n+](C)c1.O=C([O-])CO` [1-butyl-3-methylimidazolium glycolate], the surface tension liquid-gas by setting is: (298.15 K) 49.7 ± 0.5 mN/m; (303.15 K) 49.2 ± 0.5 mN/m; (313.15 K) 48.4 ± 0.5 mN/m; (323.15 K) 47.6 ± 0.5 mN/m; (333.15 K) 46.8 ± 0.5 mN/m; (343.15 K) 46.1 ± 0.5 mN/m. Further, the mass density was 1129.32 ± 8 kg/m3 (298.15 K); 1125.95 ± 8 kg/m3 (303.15 K); 1118.97 ± 8 kg/m3 (313.15 K); 1111.78 ± 8 kg/m3 (323.15 K); 1104.3 ± 8 kg/m3 (333.15 K); 1097.73 ± 8 kg/m3 (343.15 K).
Take `CC(O)C(=O)[O-].CCCCn1cc[n+](C)c1` [1-butyl-3-methylimidazolium lactate]: the surface tension liquid-gas worked out at 42.7 ± 0.5 mN/m (298.15 K); 42.3 ± 0.5 mN/m (303.15 K); 41.9 ± 0.5 mN/m (313.15 K); 41.3 ± 0.5 mN/m (323.15 K); 40.6 ± 0.5 mN/m (333.15 K); 40 ± 0.5 mN/m (343.15 K). The mass density was found to be 1100.2 ± 8 kg/m3 (298.15 K); 1096.63 ± 8 kg/m3 (303.15 K); 1089.79 ± 8 kg/m3 (313.15 K); 1083.17 ± 8 kg/m3 (323.15 K); 1076.42 ± 8 kg/m3 (333.15 K); 1069.75 ± 8 kg/m3 (343.15 K).
